According to PubChem BioAssay (NCI):
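Cultured in 96-well plates, cells were exposed to test compound for 48 hours across five concentrations. TGI: total growth inhibition.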

Assays:
Experiment in all cases: NCI tumour cell line growth inhibition, 48 h
786-0 renal = system: 786-0 renal
CAKI-1 renal = system: CAKI-1 renal
HCT-116 colon = system: HCT-116 colon
HL-60(TB) leukemia = system: HL-60(TB) leukemia
IGROV1 ovarian = system: IGROV1 ovarian
M14 melanoma = system: M14 melanoma
NCI-H226 lung = system: NCI-H226 lung
NCI-H23 lung = system: NCI-H23 lung
NCI-H522 lung = system: NCI-H522 lung
SF-268 CNS = system: SF-268 CNS
SF-295 CNS = system: SF-295 CNS
U251 CNS = system: U251 CNS
UACC-257 melanoma = system: UACC-257 melanoma
MDA-MB-435 = system: MDA-MB-435

| Compound | TGI (786-0 renal) | TGI (CAKI-1 renal) | TGI (HCT-116 colon) | TGI (HL-60(TB) leukemia) | TGI (IGROV1 ovarian) | TGI (M14 melanoma) | TGI (NCI-H226 lung) | TGI (NCI-H23 lung) | TGI (NCI-H522 lung) | TGI (SF-268 CNS) | TGI (SF-295 CNS) | TGI (U251 CNS) | TGI (UACC-257 melanoma) | TGI (MDA-MB-435) |
| --- | --- | --- | --- | --- | --- | --- | --- | --- | --- | --- | --- | --- | --- | --- |
| COc1cc(C2C(Cl)C(=O)N2NC(=O)c2ccc(N)cc2)cc(Br)c1O (stereo unspecified) | 26 µM | 30.7 µM | 22.3 µM | 27.6 µM | 34 µM | 29.2 µM | 46.2 µM | 35.1 µM | 3.4 µM | 19.7 µM | 27.7 µM | 10.1 µM | 35.9 µM | – |
| C/C(=N\Nc1nc2cccnc2s1)c1ccccn1 | > 100 µM | 12.2 µM | > 32.2 µM | > 100 µM | 1.3 µM | – | – | 0.949 µM | – | – | 3.48 µM | > 100 µM | – | > 100 µM |
| C=C[C@]1(C)CCC2=C(CCC3C2(C)CCC[C@@]3(C)COC(C)=O)C1 (stereo partly specified) | 31.8 µM | 37.6 µM | 30.9 µM | 36.4 µM | 38.1 µM | 40.3 µM | 34.6 µM | 43.3 µM | 28.7 µM | 40 µM | 32.5 µM | 31.7 µM | 53 µM | – |
| CC(C)(C)C1=CC(=C2C(=O)C(=O)c3ccccc3C2=O)C=C(C(C)(C)C)C1=O | > 100 µM | > 100 µM | > 100 µM | > 100 µM | > 100 µM | > 100 µM | – | > 100 µM | 37.9 µM | > 100 µM | > 100 µM | > 100 µM | 80.2 µM | – |
| CC1CCC2(CC1)NC1=C(CC(C)CC1)C1=C2CC(C)CC1 (stereo unspecified) | 39.1 µM | 54.5 µM | 28 µM | 35.9 µM | > 100 µM | 40.6 µM | 30.8 µM | 59 µM | 40 µM | – | 36.9 µM | 33.5 µM | 72.9 µM | – |
| O=C(O)c1ccc(C2SCc3nc4ccccc4n32)cc1 (stereo unspecified) | > 100 µM | > 100 µM | > 100 µM | > 100 µM | > 100 µM | > 100 µM | > 100 µM | > 100 µM | > 100 µM | > 100 µM | > 100 µM | > 100 µM | > 100 µM | – |
| CN1CCC2(CC1)C(=NC1CCCCC1)NC(=S)N2c1ccccc1 | > 100 µM | – | > 100 µM | > 100 µM | > 100 µM | > 100 µM | > 100 µM | > 100 µM | – | > 100 µM | > 100 µM | > 100 µM | > 100 µM | > 100 µM |
| COC(=O)C1=C(C)C=C(N2CCOCC2)C(C(=O)OC)C1c1ccccc1 (stereo unspecified) | > 10 µM | > 10 µM | > 10 µM | – | > 10 µM | > 10 µM | > 10 µM | > 10 µM | > 10 µM | > 10 µM | > 10 µM | > 10 µM | > 10 µM | > 10 µM |
| O=C1CC(=O)NC(=NNS(=O)(=O)c2ccccc2)N1 | > 100 µM | > 100 µM | > 100 µM | – | > 100 µM | > 100 µM | > 100 µM | > 100 µM | > 100 µM | > 100 µM | > 100 µM | > 100 µM | > 100 µM | > 100 µM |
| OCCN1CCN2C=C(C3CCCC4N(CCO)CCN34)CCC21 (stereo unspecified) | > 100 µM | > 100 µM | > 87.2 µM | 24 µM | > 100 µM | > 100 µM | > 100 µM | > 100 µM | > 70 µM | > 100 µM | > 100 µM | > 100 µM | > 100 µM | – |
| Ic1cc2c(cc1C1SCCCS1)OCO2 | > 100 µM | > 100 µM | > 100 µM | > 100 µM | > 100 µM | > 100 µM | > 100 µM | > 100 µM | > 100 µM | > 100 µM | > 100 µM | > 100 µM | > 100 µM | – |
| CCCCCC/C=C1\CCC(CN2CCOCC2)C1=O (stereo unspecified) | 8.75 µM | 31.4 µM | 27.7 µM | 15.7 µM | 36.6 µM | 28.1 µM | 30 µM | 31.7 µM | 19.4 µM | 43 µM | 39.3 µM | 29.3 µM | 29.3 µM | – |
| Brc1ccc2c(c1)-c1nc3nc4c(cc3cc1CC2)CCc1ccc(Br)cc1-4 | > 100 µM | > 100 µM | > 100 µM | – | > 100 µM | > 100 µM | > 100 µM | > 100 µM | > 100 µM | > 100 µM | > 100 µM | > 100 µM | > 100 µM | > 100 µM |
| Nc1cc(=O)n(-c2ccccc2)c(=S)n1-c1ccccc1 | > 100 µM | > 100 µM | > 100 µM | – | > 100 µM | > 100 µM | > 100 µM | – | > 100 µM | > 100 µM | > 100 µM | > 100 µM | > 100 µM | – |
| CC(=O)OC1COC(N2C(=O)C(=O)c3cc(Br)ccc32)C(OC(C)=O)C1OC(C)=O (stereo unspecified) | > 100 µM | > 100 µM | – | – | > 100 µM | > 100 µM | > 100 µM | > 100 µM | > 100 µM | > 100 µM | > 100 µM | > 100 µM | > 100 µM | – |
| CC(=O)Nc1nnc(S(C)(=O)=O)s1 | > 100 µM | – | > 100 µM | > 100 µM | – | > 100 µM | > 100 µM | > 100 µM | – | > 100 µM | > 100 µM | > 100 µM | > 100 µM | > 100 µM |
| CC(=O)NC1C(OCc2ccccc2)OC(COC(=O)CCCCCCCCCCNc2ccc([N+](=O)[O-])c3[nH]c4ccccc4c(=O)c23)C(O)C1OC(C)C(=O)NC(C)C(=O)NC(CCC(N)=O)C(=O)OCc1ccccc1 (stereo unspecified) | > 100 µM | > 100 µM | > 100 µM | > 100 µM | > 100 µM | > 100 µM | > 100 µM | > 100 µM | > 100 µM | > 100 µM | > 100 µM | > 100 µM | > 100 µM | – |
| COP(=O)(OC)C(O)CC(C)C (stereo unspecified) | > 100 µM | > 100 µM | > 100 µM | > 100 µM | – | > 100 µM | > 100 µM | – | – | – | > 100 µM | > 100 µM | > 100 µM | > 100 µM |
| CSC12c3cc(C)n(-c4ccccc4)c3CC(C)(C)CN1C(=O)C2Oc1ccccc1 (stereo unspecified) | > 100 µM | > 100 µM | > 100 µM | – | > 100 µM | > 100 µM | > 100 µM | > 100 µM | – | – | > 100 µM | > 100 µM | > 100 µM | > 100 µM |
| CSc1ncc2c(n1)sc1c(=O)n(-c3ccccc3)cnc12 | > 100 µM | > 100 µM | > 100 µM | – | > 100 µM | > 100 µM | > 100 µM | > 100 µM | > 100 µM | > 100 µM | > 100 µM | > 100 µM | > 100 µM | > 100 µM |
| Cc1cccc(-c2cc(=O)c3c(C)cc(C)nc3[nH]2)c1 | > 100 µM | > 100 µM | > 39.1 µM | 4.34 µM | > 100 µM | > 100 µM | 31.4 µM | 40.4 µM | 2.85 µM | > 100 µM | > 63.8 µM | 37.6 µM | > 100 µM | – |
| Clc1ccc(-c2c(C3=NCCCN3)nnn2-c2ccccc2)cc1 | > 100 µM | > 100 µM | > 100 µM | 36.6 µM | > 100 µM | > 100 µM | > 100 µM | > 100 µM | > 100 µM | > 100 µM | > 100 µM | > 100 µM | > 100 µM | – |
| FC(F)(Sc1ncc[nH]1)c1nc2ccccc2o1 | > 100 µM | > 100 µM | > 100 µM | – | > 100 µM | > 100 µM | > 100 µM | > 100 µM | > 100 µM | > 100 µM | > 100 µM | > 100 µM | > 100 µM | > 100 µM |
| Cc1cc(S(=O)(=O)/N=C(/[N-]S(=O)(=O)c2ccc(Cl)cc2)[n+]2ccc(N(C)C)cc2)c(SCC(=O)O)cc1Cl | > 100 µM | > 100 µM | > 100 µM | > 100 µM | – | > 100 µM | > 100 µM | > 100 µM | – | > 100 µM | > 100 µM | > 100 µM | > 100 µM | > 100 µM |
| NN1C(=O)C(CCO)S/C1=N/N=C1/SC(CCO)C(=O)N1N (stereo unspecified) | > 100 µM | > 100 µM | > 100 µM | > 100 µM | > 100 µM | > 100 µM | > 100 µM | > 100 µM | > 100 µM | > 100 µM | > 100 µM | > 100 µM | > 100 µM | – |
| Cc1c2ccncc2c(C)c2c1[nH]c1ccc(OCC(F)(F)F)cc12 | 2.9 µM | 3.66 µM | – | – | 3.03 µM | 3.39 µM | 3.24 µM | 3.14 µM | 3.22 µM | 3.06 µM | 3.01 µM | 2.98 µM | 3.42 µM | – |
| O=C(/C(=C\c1ccc(Cl)cc1)c1ccccc1)c1ccccc1 | > 100 µM | – | > 100 µM | 36.3 µM | > 100 µM | > 100 µM | > 100 µM | > 100 µM | > 100 µM | > 100 µM | > 100 µM | > 100 µM | > 100 µM | – |
| COc1ccc(C(=O)C(c2ccc(OCc3ccccc3)cc2)c2ccc(OCc3ccccc3)cc2)cc1 | > 100 µM | > 100 µM | > 100 µM | > 100 µM | > 100 µM | > 100 µM | > 100 µM | > 100 µM | > 100 µM | > 100 µM | > 100 µM | > 100 µM | – | – |
